Laboratory results from ChEMBL document CHEMBL5370617, “Identification of a 1,2,4-Oxadiazole with Potent and Specific Activity against Clostridioides difficile, the Causative Bacterium of C. difficile Infection, an Urgent Public Health Threat” (2023).
≈ marks a conversion by molar mass, not a printed value.

Tests used:
Assay type in all cases: functional
Conditions in all cases: time 24-48 hrs
[1] = test system: Clostridioides difficile; assay: Antibacterial activity against Clostridioides difficile ATCC 43255 assessed as bacterial growth inhibition measured at 24 to 48 hrs
[2] = test system: Clostridioides difficile; assay: Antibacterial activity against Clostridioides difficile assessed as bacterial growth inhibition measured at 24 to 48 hrs
[3] = test system: Clostridioides difficile; assay: Antibacterial activity against multi drug resistant Clostridioides difficile assessed as bacterial growth inhibition measured at 24 to 48 hrs
[4] = test system: Clostridioides difficile; assay: Antibacterial activity against drug sensitive Clostridioides difficile assessed as bacterial growth inhibition measured at 24 to 48 hrs

Row | SMILES | MIC [1] [µg/mL] | MIC [2] [µg/mL] | also measured
1 | FC(F)(F)c1ccc(Oc2ccc(-c3noc(-c4ccc5[nH]ccc5c4)n3)cc2)cc1 | 4 (≈ 9.49 µM) |  | 
2 | Oc1ccc(-c2nc(-c3ccc(OC4CCCC4)cc3)no2)cc1 | 2 (≈ 6.2 µM) |  | 
3 | O=[N+]([O-])c1cn(CCO)c(-c2nc(-c3ccc(OC4CCCC4)cc3)no2)n1 |  | > 128 | 
4 | O=[N+]([O-])c1c[nH]c(-c2nc(-c3ccc(OC4CCCC4)cc3)no2)n1 | 0.25 (≈ 0.732 µM) |  | MIC90 [3]: 1 µg/mL (≈ 2.93 µM); MIC90 [4]: 1 µg/mL (≈ 2.93 µM)
5 | Cn1c(-c2nc(-c3ccc(OC4CCCC4)cc3)no2)cnc1[N+](=O)[O-] |  | 32 (≈ 90.1 µM) | 
6 | Cc1ncc([N+](=O)[O-])n1CCO [METRONIDAZOLE] |  | 0.25 (≈ 1.46 µM) | 
